{"source": "patent US20230174649A1", "about": "“PHARMACEUTICAL COMPOSITIONS CONTAINING ANTI-CD47 ANTIBODIES” (I-MAB BIOPHARMA US LIMITED, priority 2020, published 2023)", "assay_type_in_all_cases": "cell-based, Human", "key": {"CD47": {"tested_on": "CD47", "experiment": "FACS analysis of expression level of CD47 on tumor cell surface", "conditions": "Toledo cells; for Mean Fluorescence Intensity (MFI) CD47: 12 hours", "description": "(§1) For FACS analysis, on the day of analysis (day 1), Toledo cells were seeded into 96 well plate and cultured at a density of 0.2×10^6 cells/well. Then the cells were treated with the selected small molecule therapeutic agents for 12 hours.\n(§2) On day 2, cells were harvested, washed twice and then re-suspended in 100 uL FACS buffer subject to FACS analysis. For detection of the expression of calreticulin and CD47, cells were incubated with anti-calreticulin antibody and commercially available anti-CD47 antibody (BD Biosciences, Catalog number: 561249) in dark at 4° C. for 30 mins.\n(§3) Then, the cells were subject to FACS analysis. Data was acquired and analyzed."}, "macrophages": {"tested_on": "macrophages", "experiment": "Macrophage Viability Assay (CellTiter-Glo)", "conditions": "for Macrophage viability (CellTiter-Glo Luminescent Cell Viability Assay): 16 hours, three replicate lines", "description": "Then, the monocytes isolated by MACS were subsequently cultured in fresh complete medium supplemented with recombinant human granulocyte-macrophage colony-stimulating factor GM-CSF (50 ng/ml) and human recombinant IL-4 (35 ng/ml) to activate differentiated macrophages. After 6 days of culture (on day 7), cells were harvested, pooled together and counted for next use.\nThe cells from Example 2 were plated into a 96-well flat bottom plate at a density of 0.05×10^6 cells/well. After 2 hours of incubation, the macrophages were well attached to the plate. Then selected small molecule therapeutic agents were added to the well and cocultured for 16 hours. On day 8, macrophage viability was assessed by CellTiter-Glo® Luminescent Cell Viability Assay, according to the manufacture's instruction."}, "Toledo Cells": {"tested_on": "Toledo Cells", "experiment": "FACS-based phagocytosis assay, macrophages cocultured with Toledo cells", "description": "FACS-based phagocytosis assays were performed to evaluate the phagocytic abilities of macrophages.\nToledo Cells (a tumor cell line, as a target) were labelled with CellTrace™ Far Red and plated into 96-well plate at a density of 0.15×10^6 cells/well for 12 hours. The Macrophages were prepared as discussed above and then labelled with CellTrace Violet. Next, the macrophages were added into the plate as an effector at an effector:target (Toledo) ratio of 1:3, giving a final density of macrophages at 0.05×10^6 cells/well. Macrophages and tumor cells were cocultured for 2-6 h at 37° C. in the presence of the indicated treatments (small molecule therapeutic agents, CD47 antibody, CD20 antibody or combinations). The incubation time depending on the phagocytosis rate, expecting phagocytosis of 5-20% cells.\nThen, cells were acquired and data were analyzed."}, "Calreticulin": {"tested_on": "Calreticulin", "experiment": "FACS analysis of expression level of calreticulin on tumor cell surface", "conditions": "Toledo cells; for Mean Fluorescence Intensity (MFI) Calreticulin: 12 hours", "description": "as §1, §2, §3"}}, "note": "Several values for one entry are separate records, joined by “and”; a condition that tells them apart may be missing. Identical values can stand only once.", "data": [{"smiles": "Nc1cccc2c1CN(C1CCC(=O)NC1=O)C2=O", "note": "(centres unmarked) [Lenalidomide]", "values": [{"measurement": "Mean Fluorescence Intensity (MFI) CD47", "setting": "CD47; 0.008 uM", "result": 8706}, {"measurement": "Mean Fluorescence Intensity (MFI) CD47", "setting": "CD47; 0.04 uM", "result": 8881}, {"measurement": "Mean Fluorescence Intensity (MFI) CD47", "setting": "CD47; 0.2 uM", "result": 8730}, {"measurement": "Mean Fluorescence Intensity (MFI) CD47", "setting": "CD47; 1 uM", "result": 8985}, {"measurement": "Mean Fluorescence Intensity (MFI) CD47", "setting": "CD47; 5 uM", "result": 8443}, {"measurement": "Macrophage viability (CellTiter-Glo Luminescent Cell Viability Assay)", "setting": "macrophages; Cpd 0.002 uM", "result": "5972 and 5872 and 5776"}, {"measurement": "Macrophage viability (CellTiter-Glo Luminescent Cell Viability Assay)", "setting": "macrophages; Cpd 0.008 uM", "result": "5992 and 5996 and 6180"}, {"measurement": "Macrophage viability (CellTiter-Glo Luminescent Cell Viability Assay)", "setting": "macrophages; Cpd 0.04 uM", "result": "6152 and 6132 and 5892"}, {"measurement": "Macrophage viability (CellTiter-Glo Luminescent Cell Viability Assay)", "setting": "macrophages; Cpd 0.2 uM", "result": "6216 and 6088 and 6456"}, {"measurement": "Macrophage viability (CellTiter-Glo Luminescent Cell Viability Assay)", "setting": "macrophages; Cpd 1 uM", "result": "6016 and 6108 and 6088"}, {"measurement": "Macrophage viability (CellTiter-Glo Luminescent Cell Viability Assay)", "setting": "macrophages; Cpd 5 uM", "result": "5840 and 6236 and 6108"}, {"measurement": "Macrophage viability (CellTiter-Glo Luminescent Cell Viability Assay)", "setting": "macrophages; Cpd 25 uM", "result": "5432 and 5752 and 5744"}, {"measurement": "Macrophage viability (CellTiter-Glo Luminescent Cell Viability Assay)", "setting": "macrophages; Cpd 50 uM", "result": "5208 and 5124 and 5644"}, {"measurement": "toxicity to macrophages", "setting": "macrophages; dose as high as 50 μM", "result": "showed toxicity"}, {"measurement": "toxicity to macrophages", "setting": "macrophages; dose lower than 10 μM", "result": "little toxic"}, {"measurement": "macrophage phagocytosis (untreated = 1.00)", "setting": "Toledo Cells; Cpd 0.0016 uM, T4J = 0, R = 0", "result": 1.02}, {"measurement": "macrophage phagocytosis (untreated = 1.00)", "setting": "Toledo Cells; Cpd 0.0016 uM, T4J = 0, R = 0.01 ug/ml", "result": 1.46}, {"measurement": "macrophage phagocytosis (untreated = 1.00)", "setting": "Toledo Cells; Cpd 0.0016 uM, T4J = 0.1 ug/ml, R = 0", "result": 2.48}, {"measurement": "macrophage phagocytosis (untreated = 1.00)", "setting": "Toledo Cells; Cpd 0.0016 uM, T4J = 0.1 ug/ml, R = 0.01 ug/ml", "result": 3.10}, {"measurement": "macrophage phagocytosis (untreated = 1.00)", "setting": "Toledo Cells; Cpd 0.008 uM, T4J = 0, R = 0", "result": 1.03}, {"measurement": "macrophage phagocytosis (untreated = 1.00)", "setting": "Toledo Cells; Cpd 0.008 uM, T4J = 0, R = 0.01 ug/ml", "result": 1.47}, {"measurement": "macrophage phagocytosis (untreated = 1.00)", "setting": "Toledo Cells; Cpd 0.008 uM, T4J = 0.1 ug/ml, R = 0", "result": 2.57}, {"measurement": "macrophage phagocytosis (untreated = 1.00)", "setting": "Toledo Cells; Cpd 0.008 uM, T4J = 0.1 ug/ml, R = 0.01 ug/ml", "result": 3.04}, {"measurement": "macrophage phagocytosis (untreated = 1.00)", "setting": "Toledo Cells; Cpd 0.04 uM, T4J = 0, R = 0", "result": 1.08}, {"measurement": "macrophage phagocytosis (untreated = 1.00)", "setting": "Toledo Cells; Cpd 0.04 uM, T4J = 0, R = 0.01 ug/ml", "result": 1.46}, {"measurement": "macrophage phagocytosis (untreated = 1.00)", "setting": "Toledo Cells; Cpd 0.04 uM, T4J = 0.1 ug/ml, R = 0", "result": 2.56}, {"measurement": "macrophage phagocytosis (untreated = 1.00)", "setting": "Toledo Cells; Cpd 0.04 uM, T4J = 0.1 ug/ml, R = 0.01 ug/ml", "result": 3.06}, {"measurement": "macrophage phagocytosis (untreated = 1.00)", "setting": "Toledo Cells; Cpd 0.2 uM, T4J = 0, R = 0", "result": 0.96}, {"measurement": "macrophage phagocytosis (untreated = 1.00)", "setting": "Toledo Cells; Cpd 0.2 uM, T4J = 0, R = 0.01 ug/ml", "result": 1.51}, {"measurement": "macrophage phagocytosis (untreated = 1.00)", "setting": "Toledo Cells; Cpd 0.2 uM, T4J = 0.1 ug/ml, R = 0", "result": 2.61}, {"measurement": "macrophage phagocytosis (untreated = 1.00)", "setting": "Toledo Cells; Cpd 0.2 uM, T4J = 0.1 ug/ml, R = 0.01 ug/ml", "result": 3.04}, {"measurement": "macrophage phagocytosis (untreated = 1.00)", "setting": "Toledo Cells; Cpd 1 uM, T4J = 0, R = 0", "result": 1.01}, {"measurement": "macrophage phagocytosis (untreated = 1.00)", "setting": "Toledo Cells; Cpd 1 uM, T4J = 0, R = 0.01 ug/ml", "result": 1.47}, {"measurement": "macrophage phagocytosis (untreated = 1.00)", "setting": "Toledo Cells; Cpd 1 uM, T4J = 0.1 ug/ml, R = 0", "result": 2.62}, {"measurement": "macrophage phagocytosis (untreated = 1.00)", "setting": "Toledo Cells; Cpd 1 uM, T4J = 0.1 ug/ml, R = 0.01 ug/ml", "result": 3.07}, {"measurement": "phagocytic ability of macrophages", "setting": "Toledo Cells; triple combination: T4J, Rituximab and the small molecule", "result": "does not show the synergistic effects"}, {"measurement": "Mean Fluorescence Intensity (MFI) Calreticulin", "setting": "Calreticulin; 0.008 uM", "result": 69.3}, {"measurement": "Mean Fluorescence Intensity (MFI) Calreticulin", "setting": "Calreticulin; 0.04 uM", "result": 70.1}, {"measurement": "Mean Fluorescence Intensity (MFI) Calreticulin", "setting": "Calreticulin; 0.2 uM", "result": 73.4}, {"measurement": "Mean Fluorescence Intensity (MFI) Calreticulin", "setting": "Calreticulin; 1 uM", "result": 75.6}, {"measurement": "Mean Fluorescence Intensity (MFI) Calreticulin", "setting": "Calreticulin; 5 uM", "result": 75.2}]}, {"smiles": "COc1c(OCCCN2CCOCC2)ccc2c1N=C(NC(=O)c1cnc(N)nc1)N1CCN=C21", "note": "[Copanlisib]", "values": [{"measurement": "effect on CD47 expression level", "setting": "CD47", "result": "only slightly inhibited"}, {"measurement": "Mean Fluorescence Intensity (MFI) CD47", "setting": "CD47; 0.008 uM", "result": 8024}, {"measurement": "Mean Fluorescence Intensity (MFI) CD47", "setting": "CD47; 0.04 uM", "result": 8243}, {"measurement": "Mean Fluorescence Intensity (MFI) CD47", "setting": "CD47; 0.2 uM", "result": 7844}, {"measurement": "Mean Fluorescence Intensity (MFI) CD47", "setting": "CD47; 1 uM", "result": 7097}, {"measurement": "Mean Fluorescence Intensity (MFI) CD47", "setting": "CD47; 5 uM", "result": 6803}, {"measurement": "Macrophage viability (CellTiter-Glo Luminescent Cell Viability Assay)", "setting": "macrophages; Cpd 0.002 uM", "result": "5856 and 5928 and 6000"}, {"measurement": "Macrophage viability (CellTiter-Glo Luminescent Cell Viability Assay)", "setting": "macrophages; Cpd 0.008 uM", "result": "5272 and 4772 and 5388"}, {"measurement": "Macrophage viability (CellTiter-Glo Luminescent Cell Viability Assay)", "setting": "macrophages; Cpd 0.04 uM", "result": "4856 and 5120 and 4872"}, {"measurement": "Macrophage viability (CellTiter-Glo Luminescent Cell Viability Assay)", "setting": "macrophages; Cpd 0.2 uM", "result": "4572 (2×) and 4928"}, {"measurement": "Macrophage viability (CellTiter-Glo Luminescent Cell Viability Assay)", "setting": "macrophages; Cpd 1 uM", "result": "4156 and 4492 and 4368"}, {"measurement": "Macrophage viability (CellTiter-Glo Luminescent Cell Viability Assay)", "setting": "macrophages; Cpd 5 uM", "result": "3780 and 4352 and 4196"}, {"measurement": "Macrophage viability (CellTiter-Glo Luminescent Cell Viability Assay)", "setting": "macrophages; Cpd 25 uM", "result": "4108 and 4176 and 4248"}, {"measurement": "Macrophage viability (CellTiter-Glo Luminescent Cell Viability Assay)", "setting": "macrophages; Cpd 50 uM", "result": "2748 and 3032 and 3028"}, {"measurement": "toxicity to macrophages", "setting": "macrophages; dose of 0.1-50 μM", "result": "obvious toxicity"}, {"measurement": "effect on expression level of Calreticulin", "setting": "Calreticulin", "result": "only slightly increased"}, {"measurement": "Mean Fluorescence Intensity (MFI) Calreticulin", "setting": "Calreticulin; 0.008 uM", "result": 69.8}, {"measurement": "Mean Fluorescence Intensity (MFI) Calreticulin", "setting": "Calreticulin; 0.04 uM", "result": 77}, {"measurement": "Mean Fluorescence Intensity (MFI) Calreticulin", "setting": "Calreticulin; 0.2 uM", "result": 79.4}, {"measurement": "Mean Fluorescence Intensity (MFI) Calreticulin", "setting": "Calreticulin; 1 uM", "result": 106}, {"measurement": "Mean Fluorescence Intensity (MFI) Calreticulin", "setting": "Calreticulin; 5 uM", "result": 142}]}]}
